Paper PMC9246096, “Structure-activity relationship studies for inhibitors for vancomycin-resistant Enterococcus and human carbonic anhydrases” (Journal of Enzyme Inhibition and Medicinal Chemistry, 2022)
≈ marks a conversion by molar mass, not a printed value. Where “and” joins values, the source holds several entries; their conditions need not be identical. Equal values may be shown once. Read-outs that look alike come from different tables or passages of the source.

Experiments:
E. faecium γ-CA (Efγ-CA) = E. faecium γ-CA (Efγ-CA) (Enterococcus faecium, UniProt Q3XX77); assay: biochemical; format: biochemical
Procedure: (§1) Both Efα-CA and Efγ-CA were recombinantly expressed and purified as follows. A pHis2 plasmid (GenScript) containing either the Efα-CA sequence or Efγ-CA sequence was used for the expression of hexa-histidine tagged protein in a bacterial culture. […] Starter cultures were grown at 37 °C with shaking at 225 rpm overnight. One litre of autoclaved Luria-Bertani broth containing 100 µg/mL ampicillin and 1 mM ZiCl2 was inoculated with a 10-ml aliquot of the starter culture and grown at 37 °C with shaking at 225 rpm to an OD of 0.8 before being cold shocked and induced with 500 µL of IPTG (1 M). The induced cultures were grown for 16 h at 17 °C with shaking at 225 rpm. Bacterial cell pellets were spun down at 4000 g for 20 min and resuspended in 1× PBS containing 0.5 mM TCEP, 5% glycerol, pH = 7.4 to which 5 mg lysozyme was added to aid in lysis. The resuspended bacterial cells were incubated on ice for 20 min and then lysed via sonication. Lysed bacterial cells were pelleted by centrifugation at 14,000 g for 1 h to remove cellular debris, and the supernatant was loaded onto a nickel-NTA column equilibrated with 1x PBS containing 0.5 mM TCEP, 5% glycerol, pH = 7.4. Once flowthrough was collected, the protein was eluted using a 0–500 mM imidazole stepwise gradient in the same equilibration buffer, and fractions were collected. Fractions that contained the desired protein, as determined by SDS-PAGE, were combined and subjected to TEV protease for His-tag cleavage. After the addition of TEV, the protein was dialysed for 4 h against 1× PBS containing 0.5 mM TCEP, 5% glycerol, pH = 7.4. The dialysed protein solution was loaded back onto a nickel-NTA column equilibrated with 1x PBS containing 0.5 mM TCEP, 5% glycerol, pH = 7.4 for the subtraction of TEV followed by its elution with the same buffer containing 500 mM imidazole. The protein eluted prior to the imidazole was concentrated using Amicon Ultra Centrifugal Filters and purified by size-exclusion chromatography (SEC) on an S100 column using running buffer 1x PBS containing 0.5 mM TCEP, 5% glycerol, pH = 7.4. Fractions that contained the protein of interest as confirmed by SDS-PAGE were concentrated, flash frozen, and placed in −80 °C for future use.
(§2) The assay was performed according to previously published protocols. Recombinant Efα-CA and Efγ-CA was obtained as described above and hCA I and hCA II were purchased from Millipore Sigma (hCA I Catalog# C4396-5MG; hCA II Catalog #C6624-500UG). Ki values were determined from inputting the IC50 values into the Cheng–Prusoff equation[25] for Ki from catalytic inhibition constants.

E. faecium α-CA (Efα-CA) = E. faecium α-CA (Efα-CA) (Enterococcus faecium, UniProt Q3XYE8); format: biochemical
Procedure: as §1, §2

human CA II (hCAII) = molecular target: human CA II (hCAII); design: method as in PMID 24316122; conditions: previously reported; read-out: Ki hCA II; cited from earlier work
human CA I (hCAI) = molecular target: human CA I (hCAI); design: method as in PMID 24316122; conditions: previously reported; read-out: Ki hCA I; cited from earlier work
VRE strains = conditions: full data set published by Kaur et al.; cited from earlier work
[1] = Ki Efγ-CA, recombinant Efγ-CA, Ki from IC50 via Cheng–Prusoff
[2] = read-out: Ki Efα-CA; recombinant Efα-CA; Ki from IC50 via Cheng–Prusoff
[3] = recombinant Efγ-CA, Ki from IC50 via Cheng–Prusoff, read-out: Ki Efγ-CA
[4] = recombinant Efα-CA; Ki from IC50 via Cheng–Prusoff; read-out: Ki Efα-CA

E. faecium α-CA (Efα-CA), sequence (Q3XYE8 entry or part of it): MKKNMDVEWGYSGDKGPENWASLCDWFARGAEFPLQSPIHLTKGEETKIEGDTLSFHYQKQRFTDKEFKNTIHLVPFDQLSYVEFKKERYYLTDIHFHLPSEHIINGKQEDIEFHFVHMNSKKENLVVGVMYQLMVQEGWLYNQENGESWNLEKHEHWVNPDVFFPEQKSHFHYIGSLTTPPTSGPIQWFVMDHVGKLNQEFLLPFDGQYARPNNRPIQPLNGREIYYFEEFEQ
E. faecium γ-CA (Efγ-CA), sequence (Q3XX77 entry or part of it): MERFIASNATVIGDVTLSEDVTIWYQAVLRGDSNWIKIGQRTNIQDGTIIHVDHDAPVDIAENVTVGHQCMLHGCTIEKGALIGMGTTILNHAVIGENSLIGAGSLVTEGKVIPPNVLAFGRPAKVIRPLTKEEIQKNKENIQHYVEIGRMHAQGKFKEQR

In the case of `CCC(=O)Nc1nnc(S(N)(=O)=O)s1` [Cmpd 1], the Ki (E. faecium γ-CA (Efγ-CA); [1]) is reported as 250 nM and the Ki (E. faecium α-CA (Efα-CA); [2]) is reported as 37.5 nM.
For `CC(=O)Nc1ccc(S(N)(=O)=O)cc1` [Cmpd 30], the Ki (E. faecium γ-CA (Efγ-CA); read-out: Ki Efγ-CA) is given as 529 nM, the Ki (human CA II (hCAII)) is given as 67.7 nM and the Ki (E. faecium α-CA (Efα-CA); read-out: Ki Efα-CA) is given as 180 nM. The Ki (human CA I (hCAI)) was 1330 nM.
In the case of `NS(=O)(=O)c1nnc(NC(=O)C2CCCC2)s1` [Cmpd 10], the Ki (E. faecium γ-CA (Efγ-CA); [3]) is given as 195 nM, the Ki (human CA II (hCAII)) is given as 26.2 nM and the Ki (E. faecium α-CA (Efα-CA); [4]) is given as 9.8 nM. For the same molecule, the Ki (human CA I (hCAI)) was 76.5 nM.
For `CC(C)C(=O)Nc1nnc(S(N)(=O)=O)s1` [Cmpd 2], the Ki (E. faecium γ-CA (Efγ-CA); [1]) is listed as 218 nM, the Ki (E. faecium α-CA (Efα-CA); [2]) is listed as 23.7 nM and the Ki (human CA I (hCAI)) is listed as 180 nM.
`CN1CCN(CC(=O)Nc2nnc(S(N)(=O)=O)s2)CC1` [Cmpd 25] showed a Ki (E. faecium γ-CA (Efγ-CA); [1]) of 64.7 nM and a Ki (E. faecium α-CA (Efα-CA); [2]) of 81.5 nM.
For `CC(=O)Nc1ncc(S(N)(=O)=O)s1` [Cmpd 29], the “fold reduction in binding affinity against Efγ-CA” value (E. faecium γ-CA (Efγ-CA); compared to AZM) is given as 3.5 fold, the Ki (E. faecium γ-CA (Efγ-CA); [3]) is given as 1130 nM and the Ki (human CA II (hCAII)) is given as 97.2 nM. The “fold reduction in binding affinity against Efα-CA” value (E. faecium α-CA (Efα-CA); compared to AZM) was 6 fold and 7 fold, the Ki (E. faecium α-CA (Efα-CA); [4]) was 375 nM and the Ki (human CA I (hCAI)) was 465 nM.
In the case of `NS(=O)(=O)c1nnc(NC(=O)CCc2ccccc2)s1` [Cmpd 21], the Ki (human CA I (hCAI)) is listed as 855 nM.
For `CCCCCCC(=O)Nc1nnc(S(N)(=O)=O)s1` [Cmpd 7], the Ki (E. faecium γ-CA (Efγ-CA); [3]) is listed as 632 nM, the Ki (human CA II (hCAII)) is listed as 22.7 nM and the MIC (VRE strains) is listed as 0.015 µg/mL (≈ 0.0513 µM). The Ki (E. faecium α-CA (Efα-CA); [4]) was 78.8 nM and the Ki (human CA I (hCAI)) was 328 nM.
`NS(=O)(=O)c1nnc(NC(=O)CN2CCOCC2)s1` [Cmpd 24] gave a Ki (E. faecium γ-CA (Efγ-CA); [1]) of 56.4 nM.
For `NS(=O)(=O)c1nnc(NC(=O)CC2CCCCC2)s1` [Cmpd 18], the Ki (E. faecium γ-CA (Efγ-CA); [1]) is given as 305 nM, the Ki (E. faecium α-CA (Efα-CA); [2]) is given as 14.5 nM and the Ki (human CA I (hCAI)) is given as 58.7 nM.
In the case of `NS(=O)(=O)c1nnc(NC(=O)CCC2CCCC2)s1` [Cmpd 19], the Ki (E. faecium γ-CA (Efγ-CA); [3]) is listed as 245 nM, the Ki (human CA II (hCAII)) is listed as 10.2 nM and the Ki (E. faecium α-CA (Efα-CA); [4]) is listed as 39.3 nM. For the same molecule, the Ki (human CA I (hCAI)) was 190 nM.
For `NS(=O)(=O)c1nnc(NC(=O)CN2CCCCC2)s1` [Cmpd 23], the Ki (E. faecium γ-CA (Efγ-CA); [3]) is given as 111 nM, the Ki (human CA II (hCAII)) is given as 20.9 nM and the Ki (E. faecium α-CA (Efα-CA); [4]) is given as 29.5 nM. The Ki (human CA I (hCAI)) was 53.4 nM.
For `CC(C)(C)C(=O)Nc1nnc(S(N)(=O)=O)s1` [Cmpd 3], the Ki (E. faecium γ-CA (Efγ-CA); [1]) is listed as 441 nM, the Ki (E. faecium α-CA (Efα-CA); [2]) is listed as 29.8 nM and the Ki (human CA I (hCAI)) is listed as 167 nM.
For `CC1CCC(C(=O)Nc2nnc(S(N)(=O)=O)s2)CC1` (stereo not drawn) [Cmpd 13], the Ki (E. faecium γ-CA (Efγ-CA); [3]) is listed as 345 nM, the Ki (human CA II (hCAII)) is listed as 26 nM and the Ki (E. faecium α-CA (Efα-CA); [4]) is listed as 29.6 nM. For the same molecule, the Ki (human CA I (hCAI)) was 152 nM.
In the case of `NS(=O)(=O)c1nnc(NC(=O)CC2CCCC2)s1` [Cmpd 17], the Ki (E. faecium γ-CA (Efγ-CA); [3]) is given as 233 nM, the Ki (human CA II (hCAII)) is given as 19.4 nM and the “fold reduced potency against Efα-CA” value (E. faecium α-CA (Efα-CA); compared to matched molecular paired analog 10) is given as “about 2 fold”. The Ki (E. faecium α-CA (Efα-CA); [4]) was 21.9 nM and the Ki (human CA I (hCAI)) was 86.3 nM.
